# Tests used:
# [1] = test system: HT-29 cells; test: HT-29 cell viability, MTT assay, with or without H2O2; conditions: 200 μM H2O2, MTT; H2O2 alone approximately 20%; FIG. 4k
# Experimental: (§1) For the protection of cells from H2O2 induced oxidative stress, different concentrations of BL@B-SA50 were cultured with HT-29 cells in the absence or presence of H2O2 (200 μM) for 24 hours. Relative cell viabilities were tested by the 3-(4,5-dimethylthiazol-2-yl)-2,5-diphenyltetrazolium bromide (MTT) assay.
# (§2) The concentrations of nanomaterials in different measurements of MTT assays were 0.625 μg/mL while that for confocal microscopy and flow cytometry were both 2.5 μg/mL. The viabilities of HT-29 cells without treatment were defined as 100%, while the ROS content of HT-29 cells without treatment was defined as 1.
# [2] = test system: HT-29 cells
# Experimental: as §1, §2
substance,measurement,setting,value
Bifidobacterium longum [BL],viability of HT29 cells exposed to H2O2,[1],also enhanced
same,relative cell viability of HT29 cells (cytotoxicity / growth),[2],could promote the growth of HT29

# — patent publication US20250009902A1, “ARTIFICIAL ENZYME-BACTERIA SYSTEM AND USES THEREOF” (NATIONAL UNIVERSITY OF SINGAPORE, priority 2021, published 2025)
